Results: PubChem BioAssay (NCI)
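Test compounds were applied to cells in 96-well plates for 48 hours at 5 doses. At the GI50, growth is halved. TGI denotes the concentration required for complete inhibition of growth.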

Tests used:
Test in all cases: DTP human tumour cell line panel, 48 h; in the data active = GI50 below about 0.43 µM; inactive = the rest
[1] = system: UACC-62 melanoma
[2] = system: SF-539 CNS
[3] = system: SF-268 CNS
[4] = system: MALME-3M melanoma
[5] = system: PC-3 prostate
[6] = system: MOLT-4 leukemia
[7] = system: HT29 colon
[8] = system: RXF 393 renal
[9] = system: MDA-MB-435
[10] = system: CCRF-CEM leukemia
[11] = system: HCT-116 colon
[12] = system: CAKI-1 renal
[13] = system: MCF7 breast
[14] = system: BT-549 breast
[15] = system: SK-MEL-28 melanoma
[16] = system: EKVX NSCLC
[17] = system: UO-31 renal
[18] = system: K-562 leukemia
[19] = system: SK-MEL-5 melanoma
[20] = system: COLO 205 colon
[21] = system: HOP-62 NSCLC
[22] = system: M14 melanoma
[23] = system: HOP-92 NSCLC
[24] = system: TK-10 renal
[25] = system: RPMI-8226 leukemia
[26] = system: NCI-H460 lung
[27] = system: HS 578T breast
[28] = system: SN12C renal
[29] = system: SK-MEL-2 melanoma
[30] = system: IGROV1 ovarian
[31] = system: NCI-H522 lung
[32] = system: OVCAR-4 ovarian
[33] = system: DU-145 prostate
[34] = system: 786-0 renal
[35] = system: A549 NSCLC
[36] = system: HCC-2998 colon
[37] = system: NCI-H226 lung
[38] = system: OVCAR-3 ovarian
[39] = system: NCI-H23 lung
[40] = system: SW-620 colon
[41] = system: SNB-75 CNS
[42] = system: U251 CNS
[43] = system: SNB-19 CNS
[44] = system: HL-60(TB) leukemia
[45] = system: UACC-257 melanoma
[46] = system: KM12 colon
[47] = system: A498 renal
[48] = system: T-47D breast
[49] = system: OVCAR-8 ovarian
[50] = system: NCI/ADR-RES ovarian
[51] = system: MDA-MB-231 breast
[52] = system: SK-OV-3 ovarian
[53] = system: SF-295 CNS
[54] = system: HCT-15 colon
[55] = system: LOX IMVI melanoma
[56] = system: OVCAR-5 ovarian
[57] = system: SR leukemia
[58] = system: ACHN renal

CCOC(=O)Cn1c(-c2nonc2NC(=O)c2ccccc2F)nc2ccccc21
inactive: GI50 [1] 5.86 µM | GI50 [2] 1.67 µM | GI50 [3] 1.89 µM | GI50 [4] 26.6 µM | GI50 [5] 3.16 µM | GI50 [6] 0.451 µM | GI50 [7] 0.721 µM | GI50 [8] 5.67 µM | GI50 [9] 2.25 µM | GI50 [10] > 100 µM | GI50 [11] 0.434 µM | GI50 [12] 2.33 µM | GI50 [13] 1.64 µM | GI50 [14] 5.91 µM | GI50 [15] 17.9 µM | GI50 [16] 28 µM | GI50 [17] 28.1 µM | GI50 [18] 0.505 µM | GI50 [19] 0.539 µM | GI50 [20] > 35.6 µM | GI50 [21] 10.8 µM | GI50 [22] 74.1 µM | GI50 [23] 22.1 µM | GI50 [24] 19.2 µM | GI50 [25] 7.5 µM | GI50 [26] 0.579 µM | GI50 [27] 32.4 µM | GI50 [28] 26.2 µM | GI50 [29] 41.3 µM | GI50 [30] 9.85 µM | GI50 [31] 12.7 µM | GI50 [32] 11.8 µM | GI50 [33] 4.96 µM | GI50 [34] 2.58 µM | GI50 [35] 0.768 µM | GI50 [36] 31.7 µM | GI50 [37] 19.5 µM | GI50 [38] 7.07 µM | GI50 [39] > 70.1 µM | GI50 [40] 1.4 µM | GI50 [41] 4.29 µM | GI50 [43] 5.58 µM | GI50 [45] 8.78 µM | GI50 [46] 1.93 µM | GI50 [47] 68 µM | GI50 [48] 44.1 µM | GI50 [49] 0.739 µM | GI50 [50] 4.74 µM | GI50 [51] 28.7 µM | GI50 [52] 21.3 µM | GI50 [53] 2.77 µM | GI50 [56] 26.3 µM | GI50 [58] 5.05 µM
47.7 µM: TGI [21]
46 µM: TGI [41]
> 82.1 µM: TGI [5]
> 93.7 µM: TGI [14]
active: GI50 [42] 0.41 µM | GI50 [54] 0.109 µM | GI50 [55] 0.309 µM | GI50 [57] 0.411 µM
> 60.1 µM: TGI [49]
> 87 µM: TGI [4]
> 62 µM: TGI [8]
25.8 µM: TGI [42]
> 56.7 µM: TGI [35]
> 78.9 µM: TGI [31]
> 100 µM: TGI [1] | TGI [2] | TGI [3] | TGI [6] | TGI [7] | TGI [9] | TGI [10] | TGI [11] | TGI [12] | TGI [13] | TGI [15] | TGI [16] | TGI [17] | TGI [18] | TGI [19] | TGI [20] | TGI [22] | TGI [25] | TGI [26] | TGI [27] | TGI [28] | TGI [30] | TGI [32] | TGI [33] | TGI [34] | TGI [36] | TGI [37] | TGI [38] | TGI [39] | TGI [40] | TGI [43] | TGI [44] | TGI [45] | TGI [46] | TGI [47] | TGI [48] | TGI [50] | TGI [51] | TGI [52] | TGI [54] | TGI [55] | TGI [56] | TGI [57] | TGI [58]
> 85.5 µM: TGI [29]
> 82.7 µM: TGI [24]
67.9 µM: TGI [23]
> 55.2 µM: TGI [53]
